Patent US20250108100A1, “C-TERMINAL FRAGMENT OF APOLIPOPROTEIN E AND APPLICATION THEREOF IN INHIBITING y-SECRETASE ACTIVITY” (SYNPHATEC (SHANGHAI) BIOPHARMACEUTICAL TECHNOLOGY CO., LTD., priority 2022, published 2025)
Entries after “also recorded” stand apart in the source; their conditions may differ.

Legend:
[1] = tested on: ADAM10, BACE1, PS1 and PS2; assay: mRNA (qRT-PCR) and protein (Western blot) expression of APP secretases in HEK 293T cells; assay type: cell-based, human; conditions: qRT-PCR and Western blot, vs GFP control
Experimental: • a) A plasmid expressing the target protein in mammalian cells was constructed, and the protein expression promoter is CAG. • b) The target protein was expressed in HEK 293T cell line. Cells were subcultured one day before transfection, and transfection was performed when the degree of cell adhesion reached 70%-80%. The transfection reagent was lipofectamine2000 (ThermoFisher). • c) 4-6 hours post transfection, the medium were replaced with fresh cell culture medium. • d) 36-48 hours post transfection, the cells were lysed (10% 1M tris-HCl (pH=6.8), 4% SDS, 20% glycerol, 0.01% bromophenol blue), and the protein samples were collected and used for Western blot or stored in a −80° C. freezer. • e) Polyacrylamide gel electrophoresis. Before protein loading, the protein was boiled at 98° C. for 10 min, and then centrifuged at 12000 rpm for 10 min. Electrophoresis: 80V for the upper stacking gel; 120V for the lower separating gel. • f) Protein transfer. […]
Quantitect SYBR-Green qRT-PCR kit from Qiagen was used to quantitatively analyze the relative content of mRNA. qRT-PCR primers were listed in Table 2. […]

wild-type mice = assay: Endogenous Aβ40 in brain of wild-type mice after AAV neuronal expression (ELISA); assay type: in vivo, mouse; conditions: hSyn promoter, vs GFP
[2] = Stability of ApoE2 in conditioned culture medium (Western blot); assay type: physicochemical; conditions: 37° C.; 48 hours
Experimental: N=9. […] The original ApoE2-containing culture medium (lane 1), the ApoE2-containing culture medium after incubation with untransfected cells for 48 hours (lane 2), and the ApoE2-containing culture medium separately stored in a 37° C. incubator for 48 hours (lane 3). […] DAPI, nuclear marker. […] MAP2, marker of mature neurons; DAPI, nuclear marker.

5×FAD mice = assay: Distribution of neuronally expressed ApoE around amyloid plaques in 5×FAD mice (immunofluorescence); assay type: in vivo, mouse; conditions: lentiviral vectors
Experimental: Mice were anesthetized with isoflurane and perfused with 4% PFA. Dissected mouse brains were fixed overnight in 4% PFA and cryoprotected overnight in 30% sucrose. A cryostat (Leica CM3050S) was used to obtain frozen brain slices ([…]) from fixed and cryoprotected mouse brains. Floating slices were washed 3 times with 1×PBS and then permeabilized with 0.5% Triton-X in 1×PBS for 30 minutes. After blocking with 5% BSA in 1×PBS at room temperature for 1 h, the slices were incubated overnight at 4° C. in 5% BSA (in 1×PBS) buffer comprising the primary antibody. Slices were washed 3 times with 1×PBS and incubated with secondary antibody diluted in 5% BSA (1×PBS) buffer for 1 hour at room temperature. Samples were then washed 3 times with 1×PBS and mounted with Prolong Gold Antifade Mountant (Life Technology).
After being deeply anesthetized with isoflurane, mice (5 weeks old) were placed in a stereotaxic apparatus (RWD Instruments). The zero point (x, y, z, 0, 0, 0) is Bregma. Lentivirus (lentivirus-GFP, lentivirus-ApoE and lentivirus-ApoE-IRES-GFP) and AAV (AAV2/9-hSyn-EGFP-WPRE-pA and AAV2/9-hSyn-ApoECT; purchased from Shanghai Taitool Bioscience Co. Ltd.) were injected into the cortex (x, y, z, +/−1.6, 0, −1) or hippocampus (x, y, z, +/−1.5, −2, −1.5), injected 1 ul on each injection site. The mice were then returned to their cages for rehabilitation after surgery.

## ApoE2: human apolipoprotein E2, full-length 299 amino acid residues, SEQ ID NO: 12
[1]
  mRNA and protein expression of ADAM10, BACE1, PS1 and PS2: not altered
wild-type mice
  endogenous Aβ40 in the brain: also reduce endogenous Aβ40 production; also recorded: reduced endogenous Aβ40 in the brain of mice
[2]
  stability in conditioned medium: can exist stably
5×FAD mice
  accumulation around amyloid plaques: a similar distribution pattern was detected around amyloid plaques
